What was measured:
[1] = molecular target: T1, catalytic domain (JH1) of JAK2 protein (Homo sapiens, UniProt O60674); assay: JAK2 (JH1) Enzymatic Assay at ATP=Km (30 μM), TR-FRET; type: biochemical; conditions: 30 μM ATP (=Km), 60 min at 25° C., read-out: V617F ENZ 30 μM
T1 construct: phosphorylated on the tyrosine residue by catalytic domain (JH1) of JAK2 protein; purchased BPS 40450
Description: Example A. JAK2 (JH1) Enzymatic Assay at ATP=Km (30 μM)
Inhibitor potency was determined in TR-FRET assay, which measures HTRF signal generated as a result of Eu-labeled anti-phosphotyrosine antibody binding to Biotin-labeled peptide, phosphorylated on the tyrosine residue by catalytic domain (JH1) of JAK2 protein in the presence of ATP-Mg and Allophycocyanin-streptavidin (APC-SA). JH1 domain of JAK2 protein was purchased from BPS (#40450), Eu-W1204-labeled Anti-Phosphotyrosine Antibody (PY-20) and SureLight Allophycocyanin-streptavidin were purchased from PerkinElmer (#AD0067 and #AD0201). Peptide Biot-EQEDEPEGDYFEWLEES-amide (SEQ ID NO.: 1) was purchased from Quality Controlled Biochemicals, MA (Q307-166). Assay buffer consisted of 50 mM Tris, pH=7.5, 10 mM MgCl2, 0.01% Brij-35, 0.1% BSA, 1 mM EGTA, 5% Glycerol and 5 mM DTT. To assess the inhibition of the enzymatic activity, compound was serially diluted in DMSO and a volume of 0.1 μL was transferred to the wells of a black regular volume 384-well plate (Greiner #781076) using Echo Liquid Handler (Labcyte Inc.). Positive and Negative control wells contained 0.1 μL of DMSO.
Enzyme (catalytic domain JH1 of JAK2) was diluted in assay buffer, and the Multidrop Combi liquid handler (Thermo Scientific) was used to dispense 10 μL to each well (except positive control wells, to which 10 μL of assay buffer were dispensed instead of protein).
Plate was centrifuged and reaction was started by addition of 10 μL of substrate solution containing biotinylated peptide and ATP to all wells. Plate was again centrifuged and enzymatic reaction was allowed to proceed for 60 min. at 25° C. Final concentrations in the assay were as follows: 0.02 nM protein, 30 uM ATP, 0.5 uM biotinylated peptide. Reaction was stopped by addition of 10 μL of solution, containing 45 mM EDTA, 144 nM APC/225 nM Streptavidin, and 4.5 nM Eu-Ab in detection buffer: 50 mM Tris, pH=7.8, 150 mM NaCl, 0.5 mg/ml BSA.
Plate was centrifuged and incubated for 30 min. at room temperature. HTRF signal was measured on PHERAstar plate reader instrument (BMG Labtech) with excitation at 337 nm and emissions at 620 nm and 665 nm. Data analysis tools integrated in Genedata Screener software were used to analyze the results. Raw data was normalized to percent of vehicle (DMSO) Negative control, after subtracting no-enzyme Positive inhibitor control. The IC50 values were derived by fitting the data to a four parameter logistic equation producing a sigmoidal dose-response curve using the following equation: Y=Bottom+(Top−Bottom)/(1+10^((Log IC50−X)*Hill slope)) where X is the logarithm of inhibitor concentration and Y is the response.

[2] = molecular target: T2, pseudo-kinase domain (JH2) of human V617F mutant JAK2 (Homo sapiens, UniProt O60674, F794H/V617F/W659A/W777A); assay: JAK2 LanthaScreen JH2-V617F Binding Assay; conditions: 50 nM Fluorescent JAK2-JH2 Tracer, 1 hour at 25° C., read-out: JH2 BIND V617F
T2 construct: pseudo-kinase domain (JH2, amino-acids 536-812 with 3 surface mutations W659A, W777A, F794H); purchased BPS Bioscience 79498; host or cells: baculovirus expression system
T2 sequence (O60674 536-812 V617F/W659A/W777A/F794H): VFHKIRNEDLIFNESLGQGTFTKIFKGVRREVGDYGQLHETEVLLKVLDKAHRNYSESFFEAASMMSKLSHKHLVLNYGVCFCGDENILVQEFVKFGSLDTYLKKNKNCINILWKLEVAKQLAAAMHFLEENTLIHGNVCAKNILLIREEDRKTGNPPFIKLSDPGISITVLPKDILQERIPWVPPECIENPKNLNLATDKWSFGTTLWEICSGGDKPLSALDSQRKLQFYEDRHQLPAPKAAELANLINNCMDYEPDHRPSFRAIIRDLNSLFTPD
Description: Example B. JAK2 LanthaScreen JH2-V617F Binding Assay
JAK2 JH2-V617F binding assay utilizes pseudo-kinase domain (JH2, amino-acids 536-812 with 3 surface mutations W659A, W777A, F794H) of human V617F mutant JAK2 expressed as C-terminal His-Avi-tagged, biotinylated protein in a baculovirus expression system (BPS Bioscience, Catalog #79498). The assay was conducted in black 384-well polystyrene plates in a final reaction volume of 20 μL. JAK2 JH2-V617F (0.26 nM) was incubated with compounds (100 nL serially diluted in DMSO) in the presence of 50 nM Fluorescent JAK2-JH2 Tracer (MedChem Express Catalog #HY-102055) and 0.25 nM Streptavidin-Tb cryptate (Cisbio Part #610SATLB) in assay buffer (50 mM Tris, pH=7.5, 10 mM MgCl2, 0.01% Brij-35, 0.1% BSA, 1 mM EGTA, 5% Glycerol and 5 mM DTT). Non-specific binding was accessed in the presence of 2 mM ATP. After incubation for 1 hour at 25° C., LanthaScreen signals were read on a PHERAstar FS plate reader (BMG LABTECH). Data was analyzed with IDBS XLfit and GraphPad Prism 5.0 software using a four parameter dose response curve to determine IC50 for each compound.

T1 sequence (O60674 849-1124 limits assumed): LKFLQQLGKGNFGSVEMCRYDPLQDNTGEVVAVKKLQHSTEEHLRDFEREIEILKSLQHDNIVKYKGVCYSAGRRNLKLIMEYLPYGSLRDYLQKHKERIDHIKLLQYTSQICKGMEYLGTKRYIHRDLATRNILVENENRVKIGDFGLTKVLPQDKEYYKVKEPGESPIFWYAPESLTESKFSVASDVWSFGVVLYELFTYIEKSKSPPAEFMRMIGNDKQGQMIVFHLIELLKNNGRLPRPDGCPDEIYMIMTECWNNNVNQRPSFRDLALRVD

Row | SMILES | IC50 [1] | IC50 [2]
1 | COc1c(-c2cnn(C3CN(Cc4cccc(C(=O)N(C)C)n4)C3)c2)cccc1-c1cnc(N)c2cnc(NC(=O)C3CC3)cc12 [Example 16, 6-((3-(4-(3-(1-Amino-6-(cyclopropanecarboxamido)-2,7-naphthyridin-4-yl)-2-methoxyphenyl)-1H-pyrazol-1-yl)azetidin-1-yl)methyl)-N,N-dimethylpicolinamide] | 10 to 100 nM | ≤ 10 nM
2 | COc1c(-c2cnn(C3CN(Cc4cccc(C(=O)N(C)CC(F)(F)F)n4)C3)c2)cccc1-c1cnc(N)c2cnc(NC(=O)C3CC3)cc12 [Example 17, 6-((3-(4-(3-(1-Amino-6-(cyclopropane-carboxamido)-2,7-naphthyridin-4-yl)-2-methoxyphenyl)-1H-pyrazol-1-yl)azetidin-1-yl)methyl)-N-methyl-N-(2,2,2-trifluoroethyl) picolinamide] | 10 to 100 nM | ≤ 10 nM
3 | COc1c(-c2cnn(C3CN(Cc4cccc(C(=O)N5CCCC5)n4)C3)c2)cccc1-c1cnc(N)c2cnc(NC(=O)C3CC3)cc12 [Example 18, N-(8-Amino-5-(2-methoxy-3-(1-(1-((6-(pyrrolidine-1-carbonyl)pyridin-2-yl)methyl)azetidin-3-yl)-1H-pyrazol-4-yl)phenyl)-2,7-naphthyridin-3-yl)cyclopropane-carboxamide] | 10 to 100 nM | ≤ 10 nM
4 | COc1c(-c2cnn(C3CN(Cc4cccc(C(=O)N5CCC(F)(F)C5)n4)C3)c2)cccc1-c1cnc(N)c2cnc(NC(=O)C3CC3)cc12 [Example 19, N-(8-amino-5-(3-(1-(1-((6-(3,3-difluoro-pyrrolidine-1-carbonyl)pyridin-2-yl)methyl)azetidin-3-yl)-1H-pyrazol-4-yl)-2-methoxy-phenyl)-2,7-naphthyridin-3-yl)cyclopropane-carboxamide] | 10 to 100 nM | ≤ 10 nM
5 | COc1c(-c2cnn(C3CN(Cc4cccc(C(=O)N5CCOCC5)n4)C3)c2)cccc1-c1cnc(N)c2cnc(NC(=O)C3CC3)cc12 [Example 20, N-(8-amino-5-(2-methoxy-3-(1-(1-((6-(morpholine-4-carbonyl)pyridin-2-yl)methyl)azetidin-3-yl)-1H-pyrazol-4-yl)phenyl)-2,7-naphthyridin-3-yl)cyclopropane-carboxamide] | 100 to 500 nM | ≤ 10 nM
6 | COc1c(-c2cnn(C3CN(Cc4ccccn4)C3)c2)cccc1-c1cnc(N)c2cnc(NC(=O)C3CC3)cc12 [Example 21, N-(8-Amino-5-(2-methoxy-3-(1-(1-(pyridin-2-ylmethyl)azetidin-3-yl)-1H-pyrazol-4-yl)phenyl)-2,7-naphthyridin-3-yl)cyclopropanecarboxamide] | 100 to 500 nM | ≤ 10 nM
7 | COC(=O)c1cccc(CN2CC(n3cc(-c4cccc(-c5cnc(NC(C)=O)c6cnc(NC(=O)C7CC7)cc56)c4OC)cn3)C2)n1 [Example 22, Methyl 6-((3-(4-(3-(1-acetamido-6-(cyclopropanecarboxamido)-2,7-naphthyridin-4-yl)-2-methoxyphenyl)-1H-pyrazol-1-yl)azetidin-1-yl)methyl)picolinate] | > 1000 nM | ≤ 10 nM
8 | CNc1ncc(-c2cccc(-c3ccc(C(=O)N(C)Cc4ccccn4)nc3)c2OC)c2cc(NC(=O)C3CC3)ncc12 [Example 23, 5-(3-(6-(Cyclopropanecarboxamido)-1-(methylamino)-2,7-naphthyridin-4-yl)-2-methoxyphenyl)-N-methyl-N-(pyridin-2-ylmethyl)picolinamide] | > 1000 nM | 10 to 100 nM
9 | CNc1ncc(-c2cccc(-c3cnn(C4CN(CC56CCCC(C(=O)N(C)C)(C5)C6)C4)c3)c2OC)c2cc(NC(=O)C3CC3)ncc12 [Example 24, 5-((3-(4-(3-(6-(Cyclopropanecarboxamido)-1-(methylamino)-2,7-naphthyridin-4-yl)-2-methoxyphenyl)-1H-pyrazol-1-yl)azetidin-1-yl)methyl)-N,N-dimethylbicyclo[3.1.1]heptane-1-carboxamide] | > 1000 nM | 10 to 100 nM

From patent US20250163059A1, “HETEROCYCLIC KINASE INHIBITORS” (Incyte Corporation, priority 2023, published 2025)
